Results from PubChem BioAssay (NCI).
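96-well plates; 48 h exposure; 5 concentrations. Endpoints by linear interpolation between flanking doses. Not reached: highest tested concentration assigned. GI50 marks 50% less growth. TGI marks complete inhibition of growth.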

Tests used:
Assay in all cases: NCI tumour cell line growth inhibition, 48 h
SF-539 CNS = tested on: SF-539 CNS
HCT-15 colon = tested on: HCT-15 colon
HOP-62 NSCLC = tested on: HOP-62 NSCLC
CCRF-CEM leukemia = tested on: CCRF-CEM leukemia
K-562 leukemia = tested on: K-562 leukemia
OVCAR-5 ovarian = tested on: OVCAR-5 ovarian
OVCAR-4 ovarian = tested on: OVCAR-4 ovarian
SK-MEL-5 melanoma = tested on: SK-MEL-5 melanoma

Row | SMILES | TGI (SF-539 CNS) [µM] | TGI (HCT-15 colon) [µM] | TGI (HOP-62 NSCLC) [µM] | TGI (CCRF-CEM leukemia) [µM] | TGI (K-562 leukemia) [µM] | TGI (OVCAR-5 ovarian) [µM] | TGI (OVCAR-4 ovarian) [µM] | TGI (SK-MEL-5 melanoma) [µM] | GI50 (SF-539 CNS) [µM] | GI50 (HCT-15 colon) [µM] | GI50 (HOP-62 NSCLC) [µM] | GI50 (K-562 leukemia) [µM] | GI50 (OVCAR-5 ovarian) [µM] | GI50 (OVCAR-4 ovarian) [µM] | GI50 (SK-MEL-5 melanoma) [µM]
1 | Cc1ccccc1-n1c(C)nc(-c2ccccc2)cc1=O | > 100 | > 100 | > 100 | > 100 | > 100 | > 100 | > 100 | > 100 | – | – | – | – | – | – | –
2 | O=C(O)c1ccccc1NC(=O)C1CCCCC1 | > 100 | > 100 | > 100 | > 100 | > 100 | > 100 | > 100 | > 100 | – | – | – | – | – | – | –
3 | C[C@H]1C(=O)CC[C@]2(C)CCC(C(C)(C)O)CC12O (some centres not stated) | > 100 | > 100 | > 100 | > 100 | > 100 | > 100 | > 100 | > 100 | – | – | – | – | – | – | –
4 | c1ccc2c(c1)C1=NCCN1c1ccccc1-2 | 9.69 | 12.2 | 13.3 | 5.98 | – | 15.2 | 10.2 | 6.08 | – | – | – | – | – | – | –
5 | O=S(=O)(C/C(=N\O)c1ccccc1)c1ccccc1 | > 100 | > 100 | > 100 | > 100 | > 100 | > 100 | > 100 | > 100 | – | – | – | – | – | – | –
6 | Nc1n[nH]c(CCc2nc(N)n[nH]2)n1 | > 100 | > 100 | > 100 | > 100 | > 100 | > 100 | > 100 | > 100 | – | – | – | – | – | – | –
7 | Cc1cc2c(C)n(Cc3ccc(Cl)cc3Cl)nc2c(C(=O)O)c1C | > 100 | > 100 | > 100 | > 100 | – | > 100 | – | – | – | – | – | – | – | – | –
8 | CC1=CC(=O)N(c2c(C)cccc2Cl)C(C)N1 (configuration not stated) | > 100 | > 100 | > 100 | > 100 | > 100 | > 100 | > 100 | > 100 | – | – | – | – | – | – | –
9 | O=C1C=CC(CC(=O)c2ccc3ccccc3c2)O1 (configuration not stated) | 33.2 | 50.4 | 36.6 | 63.4 | > 100 | 41.5 | 63.7 | > 100 | – | – | – | – | – | – | –
10 | COC(=O)C1=CC2OC1(C)CCC2=O (configuration not stated) | > 100 | > 100 | > 100 | > 100 | > 100 | > 100 | > 100 | – | – | – | – | – | – | – | –
11 | COc1ccc2c(c1OC)C(=O)c1cnccc1C2=O | > 100 | > 100 | > 100 | > 100 | > 100 | > 100 | > 100 | > 100 | – | – | – | – | – | – | –
12 | CCCCCCC(/C=N/O)C(C)(O)CCC (configuration not stated) | > 100 | > 100 | > 100 | > 100 | > 100 | > 100 | > 100 | > 100 | – | – | – | – | – | – | –
13 | O=[N+]([O-])c1ccc(Cl)cc1C1SCc2nc3ccccc3n21 (configuration not stated) | > 100 | > 100 | > 100 | > 100 | > 100 | – | > 100 | 84.6 | – | – | – | – | – | – | –
14 | O=C(NO)c1ccc(O)c(O)c1 | > 100 | > 100 | > 100 | > 100 | 93.8 | > 100 | > 100 | > 100 | – | – | – | – | – | – | –
15 | O=C(O)C1=C(C(=O)Nc2ccc(NC(=O)C3=C(C(=O)O)C4C=CC3C4)cc2)C2C=CC1C2 | > 100 | > 100 | > 100 | > 100 | > 100 | > 100 | > 100 | > 100 | – | – | – | – | – | – | –
16 | COC(=O)C1=C(c2ccc3c(c2)OCO3)OC(c2cc(OC)c(OC)c(OC)c2)C1 (configuration not stated) | 87.8 | 15.2 | > 100 | > 100 | > 100 | > 100 | > 100 | 60.3 | – | – | – | – | – | – | –
17 | CC1=C(C(=O)Nc2ccc([N+](=O)[O-])cc2)C(c2ccccc2F)C(C(=O)Nc2ccc([N+](=O)[O-])cc2)=C(C)N1 | > 100 | – | 47.8 | 48.7 | > 100 | > 100 | 89.8 | 40.6 | – | – | – | – | – | – | –
18 | O=C(NS(=O)(=O)c1ccccc1)C(Cc1ccccc1)C(Cc1ccccc1)C(=O)NS(=O)(=O)c1ccccc1 (configuration not stated) | > 100 | – | > 100 | > 100 | > 100 | > 100 | > 100 | > 100 | – | – | – | – | – | – | –
19 | CN1CC(=O)N(C)c2nc[nH]c2C1=O | > 100 | > 100 | – | > 100 | > 100 | > 100 | > 100 | > 100 | – | – | – | – | – | – | –
20 | CC12Oc3ccc4ccccc4c3CC1Cc1c(ccc3ccccc13)O2 (configuration not stated) | > 100 | – | > 100 | – | – | > 100 | 90.6 | – | – | – | – | – | – | – | –
21 | CC1(C)OC(=O)C=C([O-])O1.CC1(C)OC(=O)C=C([O-])O1.CC[O-].CC[O-].[Ti+4] | > 100 | > 100 | > 100 | – | > 100 | > 100 | > 100 | > 100 | > 100 | > 100 | > 100 | > 100 | > 100 | > 100 | > 100
22 | O=C(CC1C(=O)Nc2ccccc2S1=O)Nc1ccc(Cl)cc1 (configuration not stated) | 51.1 | > 100 | > 100 | – | > 100 | > 100 | > 100 | – | – | – | – | – | – | – | –
